Assays:
[1] = test system: mouse myocardial infarction modelling (LAD ligation); test: Cardiac ultrasound testing of cardiac function after myocardial infarction (EF, FS, LVEDD, LVESD); assay type: in vivo, C57BL/6J mice
Description: The sham-operated group was only passed through the lower part of the LAD without ligation, and the rest were the same as the model group. After ligation, it turned white from the ligation site to the cardiac apex when observed with the naked eyes. The left ventricular tissue was taken for cardiac tissue staining after 1 week and obvious fibrosis was observed, indicating the successful establishment of the myocardial infarction modelling. […] After anesthesia of mice (same method as before) and depilation, the mice lied on the left side, and the probe of the cardiac ultrasound diagnostic instrument was placed on the anterior wall of the heart, a two-dimensional short-axis view of the left ventricle at the papillary muscle level was taken and the M-mode ultrasonic scanning was recorded. And left ventricular ejection fraction (EF), shortening fraction (FS), left ventricular end diastolic diameter (LVEDD), and left ventricular end systolic diameter (LVESD) were measured for three consecutive cardiac cycles.

[2] = test system: mouse myocardial infarction modelling (LAD ligation); test: Ventricular remodeling: HW/BW and Masson staining, myocardial infarction area/heart area; assay type: in vivo, C57BL/6J mice; conditions: MSCs + 2-DG 500 mg/kg/day intraperitoneal; 28 days after surgery; FIG. 2
Description: The sham-operated group was only passed through the lower part of the LAD without ligation, and the rest were the same as the model group. After ligation, it turned white from the ligation site to the cardiac apex when observed with the naked eyes. The left ventricular tissue was taken for cardiac tissue staining after 1 week and obvious fibrosis was observed, indicating the successful establishment of the myocardial infarction modelling. […] Masson staining: The mice were euthanized 28 days after surgery, and left ventricular tissue was taken for cardiac tissue staining to observe the therapeutic effect. It was carried out according to the routine Masson staining steps, and the observation and photo-taking were carried out under a regular optical microscope. The image analysis software Image J was used to analyze the area of each part and calculate the myocardial infarction area/heart area.

transplanted MSCs = test: Survival of transplanted CM-Dil-stained mesenchymal stem cells (immunofluorescence, flow cytometry); conditions: MSCs + 2-DG 500 mg/kg/day intraperitoneal; 3rd day after surgery; FIG. 3

O=CC[C@@H](O)[C@H](O)[C@H](O)CO [2-DG, 2-Deoxy-D-glucose]
cardiac function of mice treated with MSCs after myocardial infarction ([1]; MSCs 5×105 intramyocardial + 2-DG 500 mg/kg/day intraperitoneal, FIG. 1): improvement of cardiac function | function of MSCs in improving myocardial infarction (overall conclusion) ([1]; conclusion from Examples 1-3, MSCs + 2-DG): can effectively improve the function of MSCs in improving myocardial infarction | ventricular remodeling of mice treated with MSCs after myocardial infarction [2]: improvement of ventricular remodeling | survival of transplanted MSCs (transplanted MSCs): significantly increases the survival of transplanted MSCs

— patent US20240108658A1, “SYNERGISTIC STEM CELL-BASED MEDICATION FOR TREATING MYOCARDIAL INFARCTION AND RELATED APPLICATION” (SOOCHOW UNIVERSITY, priority 2021, published 2024)
